# Measured values as given in PubChem BioAssay (NCI).
# Where “and” joins values, the source holds several entries; their conditions need not be identical. Equal values may be shown once.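 Cells were grown in 96-well plates and exposed to each compound for 48 hours at five concentrations; endpoints were interpolated linearly between bracketing concentrations, or set to the highest concentration if not reached. GI50 marks 50% less growth. TGI: concentration producing complete growth inhibition.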
# Tests used:
# Test in all cases: growth of human tumour cells (NCI), 48 h
# [1] = tested on: CAKI-1 renal
# [2] = tested on: DMS 273 small cell lung
# [3] = tested on: 786-0 renal
# [4] = tested on: HCC-2998 colon
# [5] = tested on: IGROV1 ovarian
# [6] = tested on: MOLT-4 leukemia
# [7] = tested on: TK-10 renal
# [8] = tested on: SNB-78 CNS
# [9] = tested on: HCT-116 colon
# [10] = tested on: HS 578T breast
SMILES,TGI [1],TGI [2],TGI [3],TGI [4],TGI [5],TGI [6],TGI [7],TGI [8],TGI [9],GI50 [1] [µM],GI50 [3] [µM],GI50 [8] [µM],GI50 [9] [µM],GI50 [4] [µM],GI50 [5] [µM],GI50 [6] [µM],GI50 [2] [µM],GI50 [7] [µM],TGI [10] [µM],GI50 [10] [µM]
N/N=C1\c2ccccc2C2/C(=N\N)c3ccccc3C12 (stereo unspecified),> 100 µM,> 100 µM,> 100 µM,> 100 µM,> 100 µM,> 100 µM,> 100 µM,–,–,–,–,–,–,–,–,–,–,–,–,–
CCOc1ccccc1NC(=O)CCc1nnc2s/c(=C\CCc3ccccc3)c(=O)n12,> 100 µM,> 100 µM,> 100 µM,> 100 µM,> 100 µM,> 100 µM,> 100 µM,> 100 µM,> 100 µM,–,–,–,–,–,–,–,–,–,–,–
Cc1ccc(NS(=O)(=O)c2cc(C(C)(C)C)ccc2OCCOCCOCCOc2ccc(C(C)(C)C)cc2S(=O)(=O)Nc2ccc(C)cc2)cc1,> 100 µM,> 100 µM,> 100 µM,> 100 µM,> 100 µM,> 100 µM,> 100 µM,> 100 µM,> 100 µM,–,–,–,–,–,–,–,–,–,–,–
CC(=O)OCC1OC(OC2CC3C(C)(C)C(OC(C)=O)CC[C@]3(C)C3CCC45CC4(CC[C@H]5C(C)CC(O)C4OC4(C)C)[C@]23C)C(O)C(O)C1O (stereo partly specified),12.2 µM and 29.9 µM,5.76 µM and 4.37 µM,10.6 µM and 14.1 µM,2.71 µM and 4.26 µM,0.829 µM and 4.56 µM,1.09 µM and 7.69 µM,9.79 µM and 12.7 µM,13.3 µM and 16.2 µM,3.46 µM and 4.42 µM,15.6,3.58,3.96,2.14,2.68,2.42,2.52,–,–,–,–
O=C([O-])c1ccc2c(c1)-c1nc-2nc2[n-]c(nc3nc(nc4[n-]c(n1)c1ccc(C(=O)[O-])cc41)-c1cc(C(=O)[O-])ccc1-3)c1ccc(C(=O)[O-])cc21.[Fe+2],> 50 µM,> 50 µM,> 50 µM,> 50 µM,> 50 µM,> 50 µM,> 50 µM,> 50 µM,34.4 µM,> 50,> 30.7,> 50,13.6,> 50,> 50,> 50,> 43.9,> 50,–,–
CO[C@H]1[C@H](O)[C@H](O[C@H]2CC[C@@]3(C)[C@H](CC[C@@H]4[C@@H]3CC[C@]3(C)[C@@H](C5=CC(=O)OC5)CC[C@]43O)C2)O[C@@H](C)[C@@H]1O,0.00156 µM,0.00303 µM,0.000687 µM,0.0584 µM and 0.0399 µM,–,0.00766 µM and < 0.0265 µM,0.00345 µM,–,0.00229 µM and < 0.0113 µM,–,–,–,–,–,–,–,–,–,< 0.0001,–
CN(C)c1ccc(/C=C2\CNC/C(=C\c3ccc(N(C)C)cc3)C2=O)cc1,–,27.6 µM,31.6 µM,> 100 µM,97.1 µM,> 100 µM,> 100 µM,> 100 µM,35.1 µM,–,–,–,–,–,–,–,–,–,–,–
N#C/C(=C/c1cccnc1)C(=O)c1ccccc1,> 100 µM,> 100 µM,> 100 µM,> 100 µM,–,> 100 µM,> 100 µM,> 100 µM,> 100 µM,–,–,–,–,–,–,–,–,–,–,–
COc1ccc(NC(=O)C(=O)NNC(=O)c2sc(NNC(C)=O)nc2C)c([N+](=O)[O-])c1,–,> 100 µM,> 100 µM,> 100 µM,–,85.1 µM,> 100 µM,> 100 µM,> 100 µM,–,–,–,–,–,–,–,–,–,–,–
O=C(Nc1cnn2ccc(N3CCC[C@@H]3c3cc(F)ccc3F)nc12)N1CC[C@H](O)C1,> 100 µM,–,> 100 µM,> 100 µM,> 100 µM,> 100 µM,> 100 µM,–,> 100 µM,> 100,> 100,–,> 100,> 100,> 100,> 100,–,> 100,> 100,> 100
COc1cc2cc(Oc3ccc(NC(=O)Nc4ccccc4)cc3)c(C)nc2cc1OCCN1CCCCC1,10 µM,–,11.1 µM,10.5 µM,11 µM,11.7 µM,17.3 µM,–,10.1 µM,4.94,5.58,–,4.77,5.62,5.68,4.98,–,8.3,14.2,5.79
CC(C)(C)OC(=O)NCCCCCCCCn1c2c(c3ccccc3c1=O)C(=O)c1ccccc1-2,> 36.5 µM,–,27.5 µM,> 50 µM,> 50 µM,> 50 µM,30.7 µM,–,> 50 µM,11.8,10.8,–,26.8,> 50,14.3,> 50,–,11.7,27.5,7.04
Cc1c(O)c(=O)ccn1C1OC(CO)C(O)C1O (stereo unspecified),> 100 µM,> 100 µM,> 100 µM,–,–,> 100 µM,> 100 µM,> 100 µM,> 100 µM,–,–,–,–,–,–,–,–,–,–,–
N#C/C(=C/C=C(\Cl)c1ccc(Cl)cc1)C(N)=O,2.99 µM,–,4.2 µM,7.71 µM,> 100 µM,> 39.8 µM,3.31 µM,–,1.49 µM,1.29,1.87,–,0.402,2.66,> 20,0.66,–,1.61,9.91,3.07
CC(CN)[C@@H]1CC[C@]2(CO)CC[C@]3(C)[C@H](CC[C@@H]4[C@@]5(C)CCC(NCCO)C(C)(C)[C@@H]5CC[C@]43C)[C@@H]12 (stereo partly specified),16.6 µM,–,3 µM,3.57 µM,19.2 µM,4.28 µM,3.88 µM,–,3.41 µM,4.12,1.55,–,1.66,1.89,4.79,1.56,–,1.81,4.59,1.87
O=C(CC/C(C/C(=N/O)c1ccc(F)cc1)=N/O)N(Cc1ccccc1)Cc1ccccc1,> 100 µM,> 100 µM,> 100 µM,> 100 µM,> 100 µM,> 100 µM,> 100 µM,–,> 100 µM,–,–,–,–,–,–,–,–,–,–,–
O=C1C=CC(=O)C1(Br)Br,11.4 µM,–,23.8 µM,31.2 µM,13.7 µM,> 100 µM,10.4 µM,–,20.9 µM,–,–,–,–,–,–,–,–,–,50.1,–
CS(=O)(=O)N1CCN(Cc2cc3nc(-c4cccc5[nH]ncc45)nc(N4CCOCC4)c3s2)CC1 (tested in a mixture with another compound),0.462 µM,–,0.148 µM,> 100 µM,0.188 µM,–,–,–,–,0.0769,0.037,–,0.149,1.31,0.0324,0.0608,–,0.129,0.612,0.0496
